Where two headings read alike, the source gives them in different places.
What was measured:
[1] = molecular target: T1, recombinant human α4β2 nicotinic acetylcholine receptor (Homo sapiens, UniProt P17787+P43681); experiment: Determination of IC50 and Kb values, aequorin luminescence assay in CHO cells; type: cell-based; conditions: antagonist mode, fixed concentration of agonist epibatidine, CHO cells, luminescence; read-out: Kb
T1 construct: expressed in transfected cells
Description: Determination of IC50 and Kb Values for Nicotinic Acetylcholine α4β2 Receptor Ligands
A stable CHO cell line expressing recombinant human α4β2 nicotinic acetylcholine receptor transiently expressing aequorin protein was used for cell-based assay. The assay offers a non-radioactive based approach to determine binding of a compound to ligand gated ion channels. In this specific assay, the level of intracellular calcium which is modulated by activation or inhibition of the channel is measured. Both the channel and aequorin genes are expressed at high level under the control of powerful CMV promotor.
The above cells were grown in 96 well clear bottom white plates in Hams F12 medium containing 10% fetal bovine serum (FBS). Prior to the addition of compounds and/or agonist, cells were serum starved for six hours. Coelentarazine (a prosthetic group for aequorin protein) was added in the medium containing 0.1% dialyzed serum and incubated overnight at 27° C. Cells were washed with assay buffer and increasing concentration of the test compound or standard were added to the plate for antagonist mode. A fixed concentration of the agonist (eipbatidine) was injected into the plate and luminescence was measured for 10 seconds. For evaluation of the compound in agonist mode, increasing concentration of the standard or test compound was injected and the luminescence was measured. Luminescence units were plotted against the compound concentrations using Graphpad software. IC50 values of the compounds were defined as the concentration required in reducing the luminescent units by 50%. The Kb values were calculated by feeding the concentration of the agonist used in the assay and its EC50 value in the same software.
Literature References: Karadsheh M. S., Shah M. S., Tang X., Macdonald R. L. and Stitzel J. A. Functional characterization of mouse α4β2 nicotinic acetylcholine receptors stably expressed in HEK293T cells. J. Neurochem. 2004, 91, 1138-1150.

Male Wister rats = experiment: Reversal of Formalin Induced Nociception; type: in vivo; conditions: rat, p.o., formalin 5% v/v subplantar
Description: Reversal of Formalin Induced Nociception
The anti-nociceptive properties of compounds of this invention were evaluated using a model of pain: the Formalin Induced Nociception model. Male Wister rats (230-280 grams) obtained from N. I. N. (National Institute of Nutrition, Hyderabad, India) was used as experimental animals.
Rats were habituated for 20 minutes in the arena before the experiment was started. Duration of licks, bites and flinches were noted from 0-10 minutes and 20-35 minutes after administration of formalin, subplantar into the right hind paw at concentrations of 5% v/v. 50 μL of water for injection was injected into the right hind paw of the rats of the sham group. Compounds of this invention were administered orally prior to formalin administration.

[2] = Rodent Pharmacokinetic Study; conditions: Wistar, in vivo, Wister rat male
Description: Rodent Pharmacokinetic Study
Male wistar rats (230-280 grams) obtained from NIN (National Institute of Nutrition, Hyderabad, India) were used as an experimental animal. Three to five animals were housed in each cage. Animals were kept fasted over night and maintained on a 12 hours light/dark cycle. […]
At each time point blood was collected by jugular vein. Plasma was stored frozen at −20° C. until analysis. The concentrations of the NCE compound in plasma were determined using LC-MS/MS method. Schedule time points: Pre dose 0.25, 0.5, 1, 1.5, 2, 3, 4, 6, 8, 10, 12 and 24 hours after dosing (n=3). The NCE compounds were quantified in plasma by validated LC-MS/MS method using solid phase extraction technique. NCE compounds were quantified in the calibration range of 1-2000 ng/mL in plasma. Study samples were analyzed using calibration samples in the batch and quality control samples spread across the batch. Pharmacokinetic parameters Cmax, Tmax, AUCs, T112 and Bioavailability were calculated by non-compartmental model using software WinNonlin version 5.0.1.

[3] = Rodent Brain Penetration Study; conditions: in vivo, Wistar rat male, P.O, read-out: Steady State Brain Penetration (Cb/Cp)
Description: Rodent Brain Penetration Study
Male Wistar rats (230-280 grams) obtained from NIN (National Institute of Nutrition, Hyderabad, India) was used as an experimental animal. Three animals were housed in each cage. Animals were given water and food ad libitum throughout the experiment, and maintained on a 12 hours light/dark cycle.
NCE compound was dissolved in water and administered orally. At Tmax (0.5, 1.0 and 2.0) animals were sacrificed to collect the plasma and brain tissue and was homogenized. Plasma and Brain was stored frozen at −20° C. until analysis. The concentrations of the NCE compound in plasma and Brain were determined using LC-MS/MS method.
The NCE compounds were quantified in plasma and brain homogenate by validated LC-MS/MS method using solid phase extraction technique. NCE compounds were quantified in the calibration range of 1-500 ng/mL in plasma and brain homogenate. Study samples were analyzed using calibration samples in the batch and quality control samples spread across the batch. Extents of brain-blood ratio were calculated (Cb/Cp).

T1 sequence (P43681 29-627): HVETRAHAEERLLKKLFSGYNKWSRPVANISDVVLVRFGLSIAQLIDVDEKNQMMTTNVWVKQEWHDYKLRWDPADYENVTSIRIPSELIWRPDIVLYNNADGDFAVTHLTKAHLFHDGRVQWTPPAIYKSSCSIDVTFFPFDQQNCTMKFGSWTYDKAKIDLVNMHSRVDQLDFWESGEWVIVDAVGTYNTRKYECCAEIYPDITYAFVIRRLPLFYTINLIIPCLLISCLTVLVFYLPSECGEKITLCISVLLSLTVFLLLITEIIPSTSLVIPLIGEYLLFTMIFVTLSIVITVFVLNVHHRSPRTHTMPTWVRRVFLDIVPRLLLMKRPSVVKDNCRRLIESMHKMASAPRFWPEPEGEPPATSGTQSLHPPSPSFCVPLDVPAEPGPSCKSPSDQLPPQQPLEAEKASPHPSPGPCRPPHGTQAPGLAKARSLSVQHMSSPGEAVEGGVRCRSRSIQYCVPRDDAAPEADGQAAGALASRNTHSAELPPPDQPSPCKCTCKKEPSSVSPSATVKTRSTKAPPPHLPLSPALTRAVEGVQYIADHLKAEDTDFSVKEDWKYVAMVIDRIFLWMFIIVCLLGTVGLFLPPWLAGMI
T1 sequence (P17787 26-502): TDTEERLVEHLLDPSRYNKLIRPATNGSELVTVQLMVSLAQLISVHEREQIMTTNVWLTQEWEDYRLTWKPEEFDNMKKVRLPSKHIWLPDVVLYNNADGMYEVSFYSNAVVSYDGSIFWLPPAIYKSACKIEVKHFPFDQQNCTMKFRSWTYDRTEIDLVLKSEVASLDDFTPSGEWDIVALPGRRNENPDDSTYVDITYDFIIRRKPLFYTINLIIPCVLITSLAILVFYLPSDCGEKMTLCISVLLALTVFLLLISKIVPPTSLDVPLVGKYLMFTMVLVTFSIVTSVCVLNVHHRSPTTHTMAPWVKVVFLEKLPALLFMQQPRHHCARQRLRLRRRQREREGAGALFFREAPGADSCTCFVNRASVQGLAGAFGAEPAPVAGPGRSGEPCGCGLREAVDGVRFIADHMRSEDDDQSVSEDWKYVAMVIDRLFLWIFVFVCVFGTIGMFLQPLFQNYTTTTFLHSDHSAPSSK

Cl.c1cncc(OCC2CC3CC3N2)c1 (stereo not drawn) [Example 1, 3-(Pyridin-3-yloxymethyl)-2-azabicyclo[3.1.0]hexane hydrochloride]
Kb [1]: 7.1 nM
Dose (reversal of formalin induced nociception) (Male Wister rats): ≦10 mg/kg, p.o.
AUC(0-t) ([2]; iv, I.V, 5 mg/kg): 4050 ± 679 ng·h/mL
Cmax ([2]; iv, I.V, 5 mg/kg): 3180 ± 38 ng/mL
Tmax ([2]; iv, I.V, 5 mg/kg): 4.8 min
half-life ([2]; iv, I.V, 5 mg/kg): 116 ± 37.2 min
bioavailability ([2]; po, P.O 15 mg/kg vs I.V 5 mg/kg): 92 ± 16%
AUC(0-t) ([2]; po, P.O, 15 mg/kg): 10900 ± 646 ng·h/mL
Cmax ([2]; po, P.O, 15 mg/kg): 7610 ± 1660 ng/mL
Tmax ([2]; po, P.O, 15 mg/kg): 15 min
half-life ([2]; po, P.O, 15 mg/kg): 251 ± 91.8 min
Kp ([3]; 15 mg/kg): 3.8 ± 0.289

Cl.Cl.Clc1cncc(OCC2CC3CC3N2)c1 (stereo not drawn) [Example 7, 3-(5-Chloropyridin-3-yloxymethyl)-2-azabicyclo[3.1.0]hexane dihydrochloride]
Kb [1]: 17.8 nM
Dose (reversal of formalin induced nociception) (Male Wister rats): ≦30 mg/kg, p.o.
AUC(0-t) ([2]; iv, I.V, 5 mg/kg): 2390 ± 196 ng·h/mL
Cmax ([2]; iv, I.V, 5 mg/kg): 2340 ± 388 ng/mL
Tmax ([2]; iv, I.V, 5 mg/kg): 4.8 min
half-life ([2]; iv, I.V, 5 mg/kg): 51.6 ± 1.8 min
bioavailability ([2]; po, P.O 5 mg/kg vs I.V 5 mg/kg): 50 ± 13%
AUC(0-t) ([2]; po, P.O, 5 mg/kg): 1190 ± 201 ng·h/mL
Cmax ([2]; po, P.O, 5 mg/kg): 949 ± 200 ng/mL
Tmax ([2]; po, P.O, 5 mg/kg): 15 min
half-life ([2]; po, P.O, 5 mg/kg): 64.2 ± 2.4 min
Kp ([3]; 5 mg/kg): 3.79 ± 0.66
